Experimental findings from PubChem BioAssay AID1259407 (Chemical Carcinogenesis Research Information System (CCRIS), 2018) are described below.

This series concerns CCRIS mutagenicity, Ames/micronucleus/aberration tests. As to the kind of experiment: CCRIS mutagenicity studies. Conditions: Test System: AMES SALMONELLA TYPHIMURIUM
[1] abbreviates: Strain/Indicator: TA98, Metabolic Activation: NONE, Method: STANDARD PLATE.
Setting [2] is: Strain/Indicator: TA100, Metabolic Activation: NONE, Method: STANDARD PLATE.

Active and inactive are the calls of the source. No rule for the calls is given here.

With `CCOC(=O)OC(=O)OCC`, the mutagenic call is “inactive; negative” under setting [1] and “inactive; negative” under setting [2].

Take `CCOC(=O)Nc1cccc2c1CN(C)CC2c1ccc(Cl)cc1` (stereo unspecified): the mutagenic call was “inactive; negative” (Strain/Indicator: TA98, Metabolic Activation: NONE); “inactive; negative” (Strain/Indicator: TA98, Metabolic Activation: S-9); “inactive; negative” (Strain/Indicator: TA100, Metabolic Activation: NONE); “inactive; negative” (Strain/Indicator: TA100, Metabolic Activation: S-9); “inactive; negative” (Strain/Indicator: TA1535, Metabolic Activation: NONE); “inactive; negative” (Strain/Indicator: TA1535, Metabolic Activation: S-9). Besides, the mutagenic call (Strain/Indicator: TA1537, Metabolic Activation: NONE) was “inactive; negative”; the mutagenic call (Strain/Indicator: TA1537, Metabolic Activation: S-9) is “inactive; negative”; the mutagenic call (Strain/Indicator: TA1538, Metabolic Activation: NONE) was “inactive; negative”; the mutagenic call (Strain/Indicator: TA1538, Metabolic Activation: S-9) is “inactive; negative”.

In the case of `Cc1c(N(C)CS(=O)(=O)O)c(=O)n(-c2ccccc2)n1C`, the mutagenic call by setting is: (Strain/Indicator: TA97A, Metabolic Activation: NONE, Method: STANDARD PLATE) “inactive; negative”; (Strain/Indicator: TA97A, Metabolic Activation: RAT LIVER S-9, PHENOBARBITAL, Method: STANDARD PLATE) “active; positive”; (Strain/Indicator: TA98, Metabolic Activation: GUINEA PIG, LIVER, S-9, PCB, Method: PREINCUBATION) “inactive; negative”; (Strain/Indicator: TA98, Metabolic Activation: HAMSTER, LIVER, S-9, PCB, Method: PREINCUBATION) “inactive; negative”; (Strain/Indicator: TA98, Metabolic Activation: MOUSE, LIVER, S-9, PCB, Method: PREINCUBATION) “inactive; negative”; under setting [1], “inactive; negative”. The mutagenic call (Strain/Indicator: TA98, Metabolic Activation: RAT LIVER S-9, PHENOBARBITAL, Method: STANDARD PLATE) is “active; positive”; the mutagenic call (Strain/Indicator: TA98, Metabolic Activation: RAT, LIVER, S-9, PCB, Method: PREINCUBATION) is “inactive; negative”; the mutagenic call (Strain/Indicator: TA100, Metabolic Activation: GUINEA PIG, LIVER, S-9, PCB, Method: PREINCUBATION) is “inactive; negative”; the mutagenic call (Strain/Indicator: TA100, Metabolic Activation: HAMSTER, LIVER, S-9, PCB, Method: PREINCUBATION) is “inactive; negative”; the mutagenic call (Strain/Indicator: TA100, Metabolic Activation: MOUSE, LIVER, S-9, PCB, Method: PREINCUBATION) is “inactive; negative”; the mutagenic call under setting [2] is “inactive; negative”. The mutagenic call is, setting by setting: (Strain/Indicator: TA100, Metabolic Activation: RAT LIVER S-9, PHENOBARBITAL, Method: STANDARD PLATE) “inactive; negative”; (Strain/Indicator: TA100, Metabolic Activation: RAT, LIVER, S-9, AROCLOR 1254, Method: PREINCUBATION) “active; positive”; (Strain/Indicator: TA100, Metabolic Activation: RAT, LIVER, S-9, PCB, Method: PREINCUBATION) “active; positive”; (Strain/Indicator: TA102, Metabolic Activation: NONE, Method: STANDARD PLATE) “inactive; negative”; (Strain/Indicator: TA102, Metabolic Activation: RAT LIVER S-9, PHENOBARBITAL, Method: STANDARD PLATE) “inactive; negative”.

On to `COC(=O)C1=C(C)NC(C)=C(C(=O)OC)C1c1ccccc1[N+](=O)[O-]`, for which the mutagenic call (Strain/Indicator: TA97, Metabolic Activation: HAMSTER, LIVER, S-9, AROCLOR 1254 (10 OR 30%), Method: PREINCUBATION) is “inactive; negative”; the mutagenic call (Strain/Indicator: TA97, Metabolic Activation: NONE, Method: PREINCUBATION) was “inactive; negative”; the mutagenic call (Strain/Indicator: TA97, Metabolic Activation: RAT, LIVER, S-9, AROCLOR 1254 (10 OR 30%), Method: PREINCUBATION) is “inactive; negative”; the mutagenic call (Strain/Indicator: TA98, Metabolic Activation: HAMSTER, LIVER, S-9, AROCLOR 1254 (10 OR 30%), Method: PREINCUBATION) was “inactive; negative”; the mutagenic call (Strain/Indicator: TA98, Metabolic Activation: NONE, Method: PREINCUBATION) was “inactive; negative”; the mutagenic call (Strain/Indicator: TA98, Metabolic Activation: RAT, LIVER, S-9, AROCLOR 1254 (10 OR 30%), Method: PREINCUBATION) is “inactive; negative”. The mutagenic call is, setting by setting: (Strain/Indicator: TA100, Metabolic Activation: HAMSTER, LIVER, S-9, AROCLOR 1254 (10 OR 30%), Method: PREINCUBATION) “inactive; negative”; (Strain/Indicator: TA100, Metabolic Activation: NONE, Method: PREINCUBATION) “inactive; negative”; (Strain/Indicator: TA100, Metabolic Activation: RAT, LIVER, S-9, AROCLOR 1254 (10 OR 30%), Method: PREINCUBATION) “inactive; negative”; (Strain/Indicator: TA1535, Metabolic Activation: HAMSTER, LIVER, S-9, AROCLOR 1254 (10 OR 30%), Method: PREINCUBATION) “inactive; negative”; (Strain/Indicator: TA1535, Metabolic Activation: NONE, Method: PREINCUBATION) “inactive; negative”; (Strain/Indicator: TA1535, Metabolic Activation: RAT, LIVER, S-9, AROCLOR 1254 (10 OR 30%), Method: PREINCUBATION) “inactive; negative”.
